This is an account of results in ChEMBL document CHEMBL4261644, “Novel Symmetrical Benzazolyl Derivatives Endowed with Potent Anti-Heparanase Activity” (J Med Chem, 2018).

pIC50: −log10 of the molar value. Active and inactive are the calls of the source. The calls are words filed in the database; no cut-off is given here. A value given as a limit tells only on which side of the number the result lay.

By pIC50 is commonly meant the IC50 on a negative log10 scale, so that one unit is a factor of ten. Broadly, the inhibition is the percentage by which the read-out fell short of the control.

For one test, the target named is T1, Heparanase (Homo sapiens, UniProt Q9Y251).
T1 sequence (Q9Y251 whole entry): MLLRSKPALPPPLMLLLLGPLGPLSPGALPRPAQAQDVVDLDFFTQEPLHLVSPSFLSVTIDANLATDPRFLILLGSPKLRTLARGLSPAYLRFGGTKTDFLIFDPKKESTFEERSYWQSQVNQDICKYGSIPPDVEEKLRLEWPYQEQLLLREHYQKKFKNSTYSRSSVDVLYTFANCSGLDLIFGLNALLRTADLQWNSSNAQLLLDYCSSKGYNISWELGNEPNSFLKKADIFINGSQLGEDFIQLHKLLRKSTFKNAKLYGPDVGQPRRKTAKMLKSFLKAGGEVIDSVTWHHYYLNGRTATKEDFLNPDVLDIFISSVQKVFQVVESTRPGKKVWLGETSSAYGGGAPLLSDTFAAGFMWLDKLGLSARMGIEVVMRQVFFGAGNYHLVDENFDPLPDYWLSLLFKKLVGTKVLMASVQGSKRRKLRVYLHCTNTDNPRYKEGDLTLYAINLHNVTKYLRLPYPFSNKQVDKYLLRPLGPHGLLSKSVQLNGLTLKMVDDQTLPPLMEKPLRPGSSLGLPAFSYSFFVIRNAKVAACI
Nature of the test: Inhibition of recombinant HPSE (unknown origin) using fondaparinux as substrate incubated for 3 hrs in absence of light by WST1 assay.

The test system of test [1] is U2OS. Nature of the test: Antiproliferative activity against human U2OS cells after 72 hrs by SRB assay. The test is classed as cell-based. The settings on record: u2os. (The SRB assay estimates cell density from bound dye.)
Test [2] concerns HT-1080. Nature of the test: Antiproliferative activity against human HT1080 cells after 72 hrs by SRB assay. The note with it: ht-1080. The test is classed as cell-based.
Test [3] relates to U-87 MG. Nature of the test: Antiproliferative activity against human U87MG cells after 72 hrs by SRB assay. The test is classed as cell-based, U-87MG ATCC. The settings on record: u-87mg atcc.
Test [4] concerns the target T2, Heparanase (Homo sapiens) (UniProt Q9Y251).
T2 sequence (whole entry): T1 sequence (Q9Y251 whole entry)
The test can be described thus: Inhibition of HPSE in human HT1080 cells assessed as reduction in FGF2 mRNA expression after 24 hrs by qPCR analysis relative to control. The class given is cell-based. (Quantitative PCR measures a nucleic acid by following its amplification.)

In test [5] the test system is U2OS. The test can be described thus: Anti-invasive activity in human U2OS cells assessed as reduction in invasive potential at 10 uM after 24 hrs by matrigel invasion assay relative to control. The class given is functional.
Test [6] deals with T2, Heparanase (Homo sapiens). Nature of the test: Inhibition of HPSE in human HT1080 cells assessed as reduction in FGF1 mRNA expression after 24 hrs by qPCR analysis relative to control. The test is classed as cell-based.
Test [7] addresses T2, Heparanase (Homo sapiens). Nature of the test: Inhibition of HPSE in human HT1080 cells assessed as reduction in MMP9 mRNA expression after 24 hrs by qPCR analysis relative to control. The test is classed as cell-based.
Test [8] concerns the target T2, Heparanase (Homo sapiens). The test can be described thus: Inhibition of HPSE in human HT1080 cells assessed as reduction in VEGF mRNA expression after 24 hrs by qPCR analysis relative to control. The class given is cell-based.
For test [9], the target named is T2, Heparanase (Homo sapiens). The test can be described thus: Inhibition of HPSE in human HT1080 cells assessed as reduction in HPSE mRNA expression after 24 hrs by qPCR analysis relative to control. The test is classed as cell-based.
For test [10], the system named is HT-1080. The test can be described thus: Anti-invasive activity in human HT1080 cells assessed as reduction in invasive potential at 10 uM after 24 hrs by matrigel invasion assay relative to control. The test is classed as functional. The note with it: HT-1080, 24 h.
For test [11], the system named is U-87 MG. The test can be described thus: Anti-invasive activity in human U87MG cells assessed as reduction in invasive potential at 10 uM after 24 hrs by matrigel invasion assay relative to control. The test is classed as functional, U-87MG ATCC.
Test [12] is described as follows: Antiproliferative activity against HPSE-expressing human CME1 cells after 72 hrs by SRB assay. The class given is functional.
The species named for test [13] is Homo sapiens. Nature of the test: Anti-invasive activity in human CME1 cells assessed as reduction in invasive potential at […] uM after 24 hrs by matrigel invasion assay. The test is classed as functional, cell-based.
For test [14], the species on record is Homo sapiens. The test can be described thus: Anti-invasive activity in human CME1 cells assessed as reduction in invasive potential after 24 hrs by matrigel invasion assay. The class given is functional, cell-based.
The species named for test [15] is Homo sapiens. Nature of the test: Anti-invasive activity in human CME1 cells assessed as reduction in invasive potential at […] uM after 72 hrs by matrigel invasion assay. The test is classed as functional, cell-based.
The subject of test [16] is HT-1080. The test can be described thus: Anti-invasive activity in human HT1080 cells assessed as reduction in invasive potential at […] after 24 hrs by matrigel invasion assay relative to control. The class given is functional, cell-based.

With `O=C(O)Cc1cccc(NC(=O)c2ccc(NC(=S)Nc3ccc(C(=O)Nc4cccc(CC(=O)O)c4)cc3F)c(F)c2)c1`, the pIC50 at Heparanase is 5.58.
For the compound `O=C(Cc1ccc2oc(-c3ccc(NC(=O)Nc4ccc(-c5nc6cc(CC(=O)NC(Cc7ccccc7)C(=O)O)ccc6o5)cc4F)c(F)c3)nc2c1)NC(Cc1ccccc1)C(=O)O` (stereo unspecified), the IC50 entry in the test on U2OS [1], in the test with HT-1080 [2] and with U-87 MG [3] was “Not Active” each time. Moreover, the pIC50 on Heparanase was 6.14.
As to `Cc1cc2nc(-c3ccc(NC(=O)Nc4ccc(-c5nc6cc(C)c(C)cc6o5)cc4)cc3)oc2cc1C`, on Heparanase, the pIC50 is less than 5.00.
Regarding `O=C(O)CNC(=O)Cc1ccc2oc(-c3ccc(NC(=O)Nc4ccc(-c5nc6cc(CC(=O)NCC(=O)O)ccc6o5)cc4F)c(F)c3)nc2c1`, the IC50 result in the test on U2OS [1], in the test on HT-1080 [2] and in the test on U-87 MG [3] was “Not Active” throughout. For the same compound, the inhibition in test [4], in test [6], in test [7], in [8] (concentration not given here) and in [9] (concentration not given here) was less than 40% in each case. In addition, the inhibition at 10 µM in the test on U2OS [5] was less than 50%; in the test on HT-1080 [10] it was 50 to 90%; with U-87 MG [11] it was 50 to 90%. The pIC50 on Heparanase was 6.35.
Regarding `CC(C)CC(NC(=O)Cc1ccc2oc(-c3ccc(NC(=O)Nc4ccc(-c5nc6cc(CC(=O)NC(CC(C)C)B(O)O)ccc6o5)cc4F)c(F)c3)nc2c1)B(O)O` (stereo unspecified), the pIC50 on Heparanase was 5.31.
Same read-out and setting: next, `O=C(O)Cc1ccc2[nH]c(-c3ccc(NC(=O)Nc4ccc(-c5nc6cc(CC(=O)O)ccc6[nH]5)cc4F)c(F)c3)nc2c1`: 6.01; `O=C(Cc1ccc2[nH]c(-c3ccc(NC(=O)Nc4ccc(-c5nc6cc(CC(=O)NC(Cc7ccccc7)C(=O)O)ccc6[nH]5)cc4F)c(F)c3)nc2c1)NC(Cc1ccccc1)C(=O)O` (stereo unspecified): 6.09.
With `O=C(O)Cc1ccc2oc(-c3ccc(NC(=O)Nc4ccc(-c5nc6cc(CC(=O)O)ccc6o5)cc4F)c(F)c3)nc2c1`, the pIC50 is 5.02 in [12] and 6.74 at Heparanase. The IC50 result in the test on U2OS [1], in the test on HT-1080 [2] and in the test on U-87 MG [3] was “Not Active” each time. The inhibition result in [4], in test [6], in test [7], in test [8] and in [9] was “Active” each time. For the same compound, the inhibition at 10 µM in the test with U2OS [5] was 50 to 90%; in the test on HT-1080 [10], less than 50%; in the test with U-87 MG [11], 50 to 90%. The outcome in the test filed under Homo sapiens [13] was inactive. Further, the Activity result in the test listed under Homo sapiens [14] is “Dose-dependent effect”. Moreover, the result in the test listed under Homo sapiens [15] was Active.
In the case of `O=C(O)Cc1ccc2[nH]c(-c3ccc(NC(=S)Nc4ccc(-c5nc6cc(CC(=O)O)ccc6[nH]5)cc4F)c(F)c3)nc2c1`, at Heparanase, the pIC50 was 6.00.
Same read-out and setting: under `Cc1cc2nc(N3CCC(NC(=O)NC4CCN(c5nc6cc(C)c(C)cc6o5)CC4)CC3)oc2cc1C` stands less than 5.00; under `O=C(O)CNC(=O)Cc1ccc2[nH]c(-c3ccc(NC(=O)Nc4ccc(-c5nc6cc(CC(=O)NCC(=O)O)ccc6[nH]5)cc4F)c(F)c3)nc2c1`, less than 5.00.
For `O=C(O)CNC(=O)Cc1ccc2oc(-c3ccc(NC(=S)Nc4ccc(-c5nc6cc(CC(=O)NCC(=O)O)ccc6o5)cc4F)c(F)c3)nc2c1`, the IC50 entry in the test with U2OS [1], in the test with HT-1080 [2] and in the test with U-87 MG [3] was “Not Active” throughout. Also, in the test with HT-1080 [16], the inhibition result is “Active”. Moreover, the inhibition in test [4], in test [6], in test [7], in test [8] (concentration not given here) and in test [9] (concentration not given here) was less than 40% throughout. Moreover, the inhibition at 10 µM with U2OS [5] was less than 50%; in the test on HT-1080 [10] it was 50 to 90%; in the test with U-87 MG [11] it was 50 to 90%. Also, the pIC50 at Heparanase was 7.10.
On to `O=C(O)Cc1cccc(NC(=O)c2ccc(CC(=O)Cc3ccc(C(=O)Nc4cccc(CC(=O)O)c4)cc3)cc2)c1`, for which the pIC50 on Heparanase was less than 5.00.
In the case of `O=C(Cc1ccc2[nH]c(-c3ccc(NC(=O)Nc4ccc(-c5nc6cc(CC(=O)NCB(O)O)ccc6[nH]5)cc4F)c(F)c3)nc2c1)NCB(O)O`, the pIC50 on Heparanase was less than 5.00.
The same measure, in the same setting: next, `O=C(O)Cc1cccc(NC(=O)c2ccc(NC(=O)Nc3ccc(C(=O)Nc4cccc(CC(=O)O)c4)cc3)cc2)c1`: 5.75.
`O=C(Nc1ccc(C(=O)Nc2cccc(C(=O)O)c2)cc1)Nc1ccc(C(=O)Nc2cccc(C(=O)O)c2)cc1`: on Heparanase, the pIC50 was 5.04.
Same read-out and setting: under `Cc1cc2nc(-c3ccc(NC(=O)Nc4ccc(-c5nc6cc(C)c(C)cc6o5)cc4F)c(F)c3)oc2cc1C` stands less than 5.00.
Still for that read-out and setting: under `O=C(O)Cc1ccc2oc(N3CCC(NC(=O)NC4CCN(c5nc6cc(CC(=O)O)ccc6o5)CC4)CC3)nc2c1` stands less than 5.00; under `O=C(O)Cc1ccc2oc(-c3cccc(NC(=O)Nc4cccc(-c5nc6cc(CC(=O)O)ccc6o5)c4)c3)nc2c1`, less than 5.00; under `O=C(Nc1ccc(C(=O)Nc2cccc(B(O)O)c2)cc1)Nc1ccc(C(=O)Nc2cccc(B(O)O)c2)cc1`, less than 5.00.
Still for that read-out and setting: next, `O=C(O)Cc1ccc(O)c(NC(=O)c2ccc(NC(=O)Nc3ccc(C(=O)Nc4cc(CC(=O)O)ccc4O)cc3)cc2)c1`: 5.56; `O=C(O)Cc1ccc2oc(-c3ccc(NC(=S)Nc4ccc(-c5nc6cc(CC(=O)O)ccc6o5)cc4F)c(F)c3)nc2c1`: 5.85.
Take `N=C(Nc1ccc(-c2nc3cc(CC(=O)O)ccc3o2)cc1)Nc1ccc(-c2nc3cc(CC(=O)O)ccc3o2)cc1`: the pIC50 at Heparanase was 5.22.
Regarding `O=C(O)Cc1ccc2oc(-c3ccc(NC(=S)Nc4ccc(-c5nc6cc(CC(=O)O)ccc6o5)cc4)cc3)nc2c1`, the pIC50 at Heparanase is 5.74.
On the same count and under the same terms, under `O=C(O)Cc1ccc(O)c(NC(=O)c2ccc(CC(O)Cc3ccc(C(=O)Nc4cc(CC(=O)O)ccc4O)cc3)cc2)c1` stands less than 5.00.
As for `O=C(O)Cc1ccc2oc(-c3ccc(NC(=O)Nc4ccc(-c5nc6cc(CC(=O)O)ccc6o5)cc4)cc3)nc2c1`, the IC50 entry with U2OS [1], with HT-1080 [2] and with U-87 MG [3] was “Not Active” in each case. On Heparanase, the pIC50 is 5.49.
As for `O=C(O)Cc1cccc(NS(=O)(=O)c2ccc(NC(=O)Nc3ccc(S(=O)(=O)Nc4cccc(CC(=O)O)c4)cc3)cc2)c1`, at Heparanase, the pIC50 is less than 5.00.
Take `CC(NC(=O)Cc1ccc2oc(-c3ccc(NC(=O)Nc4ccc(-c5nc6cc(CC(=O)NC(C)C(=O)O)ccc6o5)cc4F)c(F)c3)nc2c1)C(=O)O` (stereo unspecified): the IC50 result in the test with U2OS [1], with HT-1080 [2] and in the test with U-87 MG [3] was “Not Active” each time. Moreover, the inhibition at 10 µM in the test with U2OS [5] is less than 50%; with HT-1080 [10] it was less than 50%; with U-87 MG [11], 50 to 90%. Also, the pIC50 on Heparanase was 6.43.
On to `O=C(O)Cc1cccc(NC(=O)c2ccc(CC(O)Cc3ccc(C(=O)Nc4cccc(CC(=O)O)c4)cc3)cc2)c1`, for which the pIC50 on Heparanase was less than 5.00.
In the case of `O=C(Cc1ccc2oc(-c3ccc(NC(=O)Nc4ccc(-c5nc6cc(CC(=O)NCB(O)O)ccc6o5)cc4F)c(F)c3)nc2c1)NCB(O)O`, the pIC50 at Heparanase is less than 5.00.
On to `CC(C)CCNC(=O)Cc1ccc2oc(-c3ccc(NC(=O)Nc4ccc(-c5nc6cc(CC(=O)NCCC(C)C)ccc6o5)cc4F)c(F)c3)nc2c1`, for which the negative-log IC50 (pIC50) at Heparanase was less than 5.00.
